According to US11319305B2, “Pyrimidine sulfamide derivative and preparation method and medical application thereof” (SHIJIAZHUANG SAGACITY NEW DRUG DEVELOPMENT CO., LTD., priority 2017, dated 2022):

Columns and labels:
[1] = Pharmacokinetics in SD rats; type: in vivo; settings: male, Sprague-Dawley, rat, plasma; for half-life / clearance: intravenous injection 2 mg/kg; for clearance: iv, 2 mg/kg, read-out: Plasma clearance rate
Source text: Experimental Embodiment 6: Evaluation on the Pharmacokinetic of the Compounds in Rats
SD male rats were selected as the test animals in this study, and the drug concentration in plasma of the rats at different time points via intravenous injection or oral gastric administration of the test compound was quantitatively measured using LC/MS/MS method to evaluate the pharmacokinetic characteristics of the test compounds in rats.
Sprague Dawley (SD) rats (male, 200-300 g, 7-10 weeks old, Beijing Viton Lihua or Shanghai Slake).
A clear solution of the test compound was injected into SD rats via the tail vein (overnight fasting), or administrated orally by gavage (overnight fasting). For intravenous administration, 200 μL of jugular blood was collected via vein puncture at 0 hour (pre-dosing) and at 0.0833, 0.25, 0.5, 1, 2, 4, 6, 8 and 24 hours after dosing, which was then placed in an anticoagulation tube supplemented with EDTA-K2 (Suzuki Healthcare Medical Co., Ltd.). The mixture in the anticoagulation tube was vortexed to mix thoroughly at 4° C., and then centrifuged at 13000 rpm for 10 minutes to collect the plasma. For oral gavage administration, 200 μL of jugular blood was collected via vein puncture at 0 hour (pre-dosing) and at 0.5, 1, 2, 4, 6, 8 and 24 hours after dosing, which was then placed in an anticoagulation tube supplemented with EDTA-K2 (Suzuki Healthcare Medical Co., Ltd.). The mixture in the anticoagulation tube was vortexed to mix thoroughly, and then centrifuged at 13000 rpm for 10 minutes to collect the plasma. Plasma drug concentration was measured by LC/MS/MS method, and related pharmacokinetic parameters were calculated using WinNonlin™ Version 6.3 (Pharsight, Paul View, Calif.) pharmacokinetics software in non-room model linear logarithmic trapezoids method.

[2] = target: T1, CYP2C19 (Homo sapiens, UniProt P33261); assay: Human liver microsomal cytochrome P450 isozyme inhibition assay, CYP2C19; type: in vitro ADME; settings: human liver microsomes
T1 construct: Mixed human liver microsomes (HLM) were purchased from Corning Inc; tissue Corning Inc; host or cells: pooled human liver microsomes
Description: (§1) Experimental Embodiment 4: Human Liver Microsomal Cytochrome P450 Isozyme Inhibition Assay The purpose of the assay was to evaluate the inhibitory activity of the samples against human liver microsomal cytochrome P450 isozyme (CYP1A2, CYP2C9, CYP2C19, CYP2D6 and CYP3A4) using the 5-in-1 probe substrate of the CYP isozyme. Mixed human liver microsomes (HLM) were purchased from Corning Inc. (Steuben, N.Y., USA) and stored below −80° C. before use. The test compound working solution which has been diluted into serial concentrations was added to an incubation system containing human liver microsomes, probe substrates and circulating system cofactors, and a control containing solvent without the test compound was used as the enzyme activity control (100%). The concentration of the metabolite produced by the probe substrate in the sample was determined using a liquid chromatography-tandem mass spectrometry (LC-MS/MS) method. Nonlinear regression analysis was performed on the average percent activity versus concentration of subjects using SigmaPlot (V.11). The IC50 value was calculated by a three-parameter or four-parameter inverse-logarithmic equation.

[3] = target: T2, CYP2D6 (Homo sapiens, UniProt P10635); assay: Human liver microsomal cytochrome P450 isozyme inhibition assay, CYP2D6; type: in vitro ADME; settings: human liver microsomes
T2 construct: Mixed human liver microsomes (HLM) were purchased from Corning Inc; tissue Corning Inc; host or cells: pooled human liver microsomes
Description: as §1

[4] = target: T3, bile salt transport pump (BSEP) (Homo sapiens, UniProt O95342); assay: Inhibition test on bile salt transfer pump (BSEP), taurocholic acid uptake in BSEP-Hi5-VT vesicles; type: in vitro ADME
T3 construct: purchased Solvo Biotechnology SB-BSEP-Hi5-VT; host or cells: Hi5 insect cells (read from the product name; own knowledge)
Description: Prepared with buffer A, 8.16 mM ATP and 4.08 μM taurocholic acid were contained in 12 mL buffer A.
Prepared with buffer A, 8.16 mM AMP, 4.08 μM taurocholic acid 12 mL buffer A were contained in buffer A.
A solution containing BSEP-Hi5-VT 5 μg/μL was prepared with buffer A.
The compound was diluted to 100 mM with DMSO; then serially diluted 3-fold for an 11-point dilution; the minimum concentration was 0.169 μM.
Positive reference Glyburide was diluted to 20 mM with DMSO; then serially diluted 2-fold for an 11-point dilution; the minimum concentration was 19.5
0.3 μL of a solution of the compound in DMSO or a diluted DMSO solution were transferred into corresponding wells of the compound plate using ECHO, respectively.
14.7 μL of ATP buffer was added to the compound and the corresponding wells of zero percent effect (ZPE), respectively.
14.7 μL of AMP buffer was added to the corresponding wells of 100% effect (HPE), respectively.
The plate was shaked for 10 minutes at 25° C.
15 μL of BSEP-H15-VT Vesicle solution was added to all wells, respectively, and the plate was shaked for another 40 minutes at 25° C.
6.5 μL 0.5 M ethylenediaminetetraacetic acid (EDTA) solution was added to all wells immediately, followed by addition of 65 μL of buffer B, and the whole reaction was completed.
7.95 μL of liquid was transferred to the filter plate from the compound plate at the end of the reaction using an instrument.
After placing the liquid receiving plate under the filter plate, the liquid was removed using a centrifuge and the receiving plate liquid was discarded.
9.90 μL of buffer B was added to the filter plate. After placing the liquid receiving plate under the filter plate, the liquid was removed using a centrifuge, and the receiving plate liquid was discarded, and filter plate was washed for three times in total.
The filter plate was dried overnight.
On the next day, 80 μL of methanol/water (80/20, volume ratio) solution was added to the filter plate.
The plate was shaked for 15 minutes after the filter plate was attached to the membrane.
A new liquid receiving plate was placed under the filter plate, and the filter plate was centrifuged for 5 minutes, and all liquids in the filter plate were filtrated into the receiving plate.
15 μL of internal standard solution was added to each wells in the liquid receiving plate, and the plate was sealed with a membrane.
The content of taurocholic acid in the receiving plate was detected using LC/MS/MS.
Several concentrations were tested in each experiments. The data were analyzed using Prism to generate a concentration-response curve, and IC50 values of the compounds were calculated.

[5] = target: T4, CYP3A4 (Homo sapiens, UniProt P08684); assay: Human liver microsomal cytochrome P450 isozyme inhibition assay, CYP3A4; type: in vitro ADME; settings: human liver microsomes
T4 construct: Mixed human liver microsomes (HLM) were purchased from Corning Inc; tissue Corning Inc; host or cells: pooled human liver microsomes
Description: as §1

[6] = target: T5, CYP1A2 (Homo sapiens, UniProt P05177); assay: Human liver microsomal cytochrome P450 isozyme inhibition assay, CYP1A2; type: in vitro ADME; settings: human liver microsomes
T5 construct: Mixed human liver microsomes (HLM) were purchased from Corning Inc; tissue Corning Inc; host or cells: pooled human liver microsomes
T5 sequence (P05177 1-516): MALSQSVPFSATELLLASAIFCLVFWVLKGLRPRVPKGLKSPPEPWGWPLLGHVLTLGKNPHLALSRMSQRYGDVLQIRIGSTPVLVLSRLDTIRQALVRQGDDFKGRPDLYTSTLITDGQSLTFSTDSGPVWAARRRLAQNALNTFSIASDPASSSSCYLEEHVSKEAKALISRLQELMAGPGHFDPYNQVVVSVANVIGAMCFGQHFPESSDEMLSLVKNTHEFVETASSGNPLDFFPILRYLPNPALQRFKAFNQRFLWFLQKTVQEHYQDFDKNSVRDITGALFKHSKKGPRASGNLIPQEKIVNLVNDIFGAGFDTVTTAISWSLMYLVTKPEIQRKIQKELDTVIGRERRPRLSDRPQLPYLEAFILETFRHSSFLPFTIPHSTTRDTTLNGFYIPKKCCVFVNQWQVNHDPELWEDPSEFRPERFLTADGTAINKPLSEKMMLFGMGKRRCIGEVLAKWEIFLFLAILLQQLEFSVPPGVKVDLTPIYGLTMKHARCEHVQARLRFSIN
Description: as §1

[7] = system: human liver microsomal cytochrome P450 isozyme (CYP1A2, CYP2C9, CYP2C19, CYP2D6 and CYP3A4); assay: Human liver microsomal cytochrome P450 isozyme inhibition assay, summary over the main isozymes; type: in vitro ADME
Description: as §1

T3 sequence (O95342 whole entry): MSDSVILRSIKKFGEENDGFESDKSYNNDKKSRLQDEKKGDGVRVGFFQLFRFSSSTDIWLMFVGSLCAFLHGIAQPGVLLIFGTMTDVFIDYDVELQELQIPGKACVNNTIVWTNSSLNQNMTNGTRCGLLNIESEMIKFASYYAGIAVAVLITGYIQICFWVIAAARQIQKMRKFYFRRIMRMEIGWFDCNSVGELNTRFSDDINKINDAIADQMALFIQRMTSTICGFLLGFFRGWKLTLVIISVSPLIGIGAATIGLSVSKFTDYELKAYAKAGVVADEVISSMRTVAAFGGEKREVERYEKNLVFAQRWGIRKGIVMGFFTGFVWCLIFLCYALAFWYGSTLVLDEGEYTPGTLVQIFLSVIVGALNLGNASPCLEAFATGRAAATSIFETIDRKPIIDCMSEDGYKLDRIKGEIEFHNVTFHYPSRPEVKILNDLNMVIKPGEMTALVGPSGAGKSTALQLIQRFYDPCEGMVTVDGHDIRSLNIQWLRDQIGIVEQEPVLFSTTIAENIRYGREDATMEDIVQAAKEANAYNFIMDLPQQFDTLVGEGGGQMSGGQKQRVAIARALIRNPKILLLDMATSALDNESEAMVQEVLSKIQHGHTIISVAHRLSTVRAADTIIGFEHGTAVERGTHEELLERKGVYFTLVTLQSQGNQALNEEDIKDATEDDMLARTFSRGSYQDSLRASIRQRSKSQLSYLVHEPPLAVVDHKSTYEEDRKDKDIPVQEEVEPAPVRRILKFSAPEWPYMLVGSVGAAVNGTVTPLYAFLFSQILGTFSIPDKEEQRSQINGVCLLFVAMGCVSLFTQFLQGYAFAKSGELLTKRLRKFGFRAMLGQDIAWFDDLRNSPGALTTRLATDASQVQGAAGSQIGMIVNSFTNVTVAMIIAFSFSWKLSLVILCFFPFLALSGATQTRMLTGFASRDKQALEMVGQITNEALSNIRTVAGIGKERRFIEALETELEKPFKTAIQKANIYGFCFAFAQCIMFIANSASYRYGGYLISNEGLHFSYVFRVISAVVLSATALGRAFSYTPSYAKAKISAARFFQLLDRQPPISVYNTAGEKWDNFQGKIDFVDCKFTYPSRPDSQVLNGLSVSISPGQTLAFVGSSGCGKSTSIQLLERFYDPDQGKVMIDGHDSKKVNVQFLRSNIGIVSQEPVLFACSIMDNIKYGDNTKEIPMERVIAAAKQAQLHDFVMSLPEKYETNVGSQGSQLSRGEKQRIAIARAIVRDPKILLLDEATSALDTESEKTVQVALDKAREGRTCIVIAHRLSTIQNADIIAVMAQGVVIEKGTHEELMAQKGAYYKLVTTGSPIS
T4 sequence (P08684 whole entry): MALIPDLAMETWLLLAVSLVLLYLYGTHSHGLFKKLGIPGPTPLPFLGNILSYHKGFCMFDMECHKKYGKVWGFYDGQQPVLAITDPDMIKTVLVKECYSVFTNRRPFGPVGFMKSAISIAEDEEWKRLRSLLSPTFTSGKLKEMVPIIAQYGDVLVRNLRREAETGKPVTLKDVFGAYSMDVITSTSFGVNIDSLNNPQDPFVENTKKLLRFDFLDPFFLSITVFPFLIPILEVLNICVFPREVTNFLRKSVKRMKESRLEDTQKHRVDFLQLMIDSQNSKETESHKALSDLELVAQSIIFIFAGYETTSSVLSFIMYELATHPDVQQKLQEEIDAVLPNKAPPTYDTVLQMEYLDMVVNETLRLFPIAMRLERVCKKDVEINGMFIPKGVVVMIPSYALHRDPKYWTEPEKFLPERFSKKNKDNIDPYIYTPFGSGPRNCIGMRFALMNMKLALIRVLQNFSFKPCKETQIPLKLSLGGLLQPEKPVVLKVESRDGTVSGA
T2 sequence (P10635 whole entry): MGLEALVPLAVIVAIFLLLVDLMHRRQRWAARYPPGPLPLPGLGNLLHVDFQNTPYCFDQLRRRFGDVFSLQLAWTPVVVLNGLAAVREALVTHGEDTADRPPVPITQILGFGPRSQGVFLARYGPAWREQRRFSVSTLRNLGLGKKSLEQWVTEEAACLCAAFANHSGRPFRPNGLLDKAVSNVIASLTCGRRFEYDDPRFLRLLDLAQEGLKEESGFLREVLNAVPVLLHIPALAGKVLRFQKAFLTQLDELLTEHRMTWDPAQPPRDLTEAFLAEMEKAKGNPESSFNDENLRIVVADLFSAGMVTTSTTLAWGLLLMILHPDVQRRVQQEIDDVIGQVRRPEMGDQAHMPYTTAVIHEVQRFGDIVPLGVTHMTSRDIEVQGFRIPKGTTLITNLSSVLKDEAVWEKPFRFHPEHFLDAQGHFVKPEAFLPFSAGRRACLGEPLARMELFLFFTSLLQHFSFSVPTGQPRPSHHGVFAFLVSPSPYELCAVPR
T1 sequence (P33261 whole entry): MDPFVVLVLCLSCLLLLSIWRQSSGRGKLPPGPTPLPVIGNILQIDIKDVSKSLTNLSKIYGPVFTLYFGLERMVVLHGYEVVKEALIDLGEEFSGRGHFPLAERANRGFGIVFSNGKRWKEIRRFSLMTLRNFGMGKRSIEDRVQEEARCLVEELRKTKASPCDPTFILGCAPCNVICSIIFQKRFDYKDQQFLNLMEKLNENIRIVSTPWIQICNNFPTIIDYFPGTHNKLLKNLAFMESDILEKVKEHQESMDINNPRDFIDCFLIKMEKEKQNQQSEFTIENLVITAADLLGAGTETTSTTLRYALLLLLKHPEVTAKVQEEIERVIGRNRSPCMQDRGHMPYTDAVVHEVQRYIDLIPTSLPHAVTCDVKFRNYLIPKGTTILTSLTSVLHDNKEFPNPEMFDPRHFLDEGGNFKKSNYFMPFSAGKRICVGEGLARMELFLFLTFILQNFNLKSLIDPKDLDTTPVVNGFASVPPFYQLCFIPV

| SMILES | half-life [1] [h] | clearance [1] [mL/min/kg] | IC50 [2] [µM] | IC50 [3] [µM] | bioavailability ([1]; po, 10 mg/kg, oral administration 10 mg/kg) [%] | inhibitory effect on the bile salt transport pump (BSEP) (in words) [4] | IC50 ([4]; substrate taurocholic acid, read-out: IC50, inhibitory effect on the bile salt transport pump (BSEP)) [µM] | IC50 [5] [µM] | IC50 [6] [µM] | inhibitory effects on five main isozymes of CYP (in words) [7] |
| --- | --- | --- | --- | --- | --- | --- | --- | --- | --- | --- |
| NS(=O)(=O)Nc1ncnc(OCCOc2ncc(Br)cn2)c1-c1ccc2c(c1)OCO2 [WX001] | 1.26 | < 5 |  |  |  |  |  |  |  |  |
| COCCNS(=O)(=O)Nc1ncnc(OCCOc2ncc(Br)cn2)c1-c1ccc2c(c1)OCO2 [WX013] | 1.14 | < 5 | > 50 | > 50 | > 70 | extremely weak | 43.8 | 18 | 47 | very weak |
